Reference: ChEMBL document CHEMBL4732086, “Targeting nuclear protein TDP-43 by cell division cycle kinase 7 inhibitors: A new therapeutic approach for amyotrophic lateral sclerosis” (Eur J Med Chem, 2021)
Active and inactive are the calls of the source. No cut-off for these calls is given here.

What was measured:
[1] = biological target: Dual specificity tyrosine-phosphorylation-regulated kinase 1B (Homo sapiens) (UniProt Q9Y463); test: Inhibition of recombinant human full length GST-tagged DYRK1B expressed in baculovirus expression system using serine/threonine-18 peptide as substrate at 10 uM incubated for 60 mins in presence of ATP by Z'-LYTE assay
Dual specificity tyrosine-phosphorylation-regulated kinase 1B (Homo sapiens), sequence (Q9Y463 whole entry, looked up): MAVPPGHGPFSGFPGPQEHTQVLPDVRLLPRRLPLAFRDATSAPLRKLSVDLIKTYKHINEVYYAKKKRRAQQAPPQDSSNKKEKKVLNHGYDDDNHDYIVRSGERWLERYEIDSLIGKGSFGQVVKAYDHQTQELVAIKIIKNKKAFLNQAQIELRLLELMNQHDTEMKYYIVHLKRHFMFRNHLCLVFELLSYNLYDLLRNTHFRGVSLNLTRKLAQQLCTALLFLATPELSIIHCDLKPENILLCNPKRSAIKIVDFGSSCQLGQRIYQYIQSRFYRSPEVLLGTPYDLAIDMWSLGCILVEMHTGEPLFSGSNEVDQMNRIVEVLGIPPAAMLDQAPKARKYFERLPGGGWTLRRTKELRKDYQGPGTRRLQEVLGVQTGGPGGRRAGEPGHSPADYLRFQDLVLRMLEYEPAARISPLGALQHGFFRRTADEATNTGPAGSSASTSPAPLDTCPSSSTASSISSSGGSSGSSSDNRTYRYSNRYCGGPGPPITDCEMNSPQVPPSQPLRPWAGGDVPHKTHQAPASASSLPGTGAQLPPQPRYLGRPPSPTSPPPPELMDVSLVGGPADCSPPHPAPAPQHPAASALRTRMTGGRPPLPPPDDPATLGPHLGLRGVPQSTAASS

[2] = biological target: Calcium/calmodulin-dependent protein kinase type II subunit alpha (Homo sapiens) (UniProt Q9UQM7); test: Inhibition of recombinant full length human His-tagged CAMK2alpha expressed in baculovirus expression system using serine/threonine-4 peptide as substrate at 10 uM incubated for 60 mins in presence of ATP by Z'-LYTE assay
Calcium/calmodulin-dependent protein kinase type II subunit alpha (Homo sapiens), sequence (Q9UQM7 whole entry): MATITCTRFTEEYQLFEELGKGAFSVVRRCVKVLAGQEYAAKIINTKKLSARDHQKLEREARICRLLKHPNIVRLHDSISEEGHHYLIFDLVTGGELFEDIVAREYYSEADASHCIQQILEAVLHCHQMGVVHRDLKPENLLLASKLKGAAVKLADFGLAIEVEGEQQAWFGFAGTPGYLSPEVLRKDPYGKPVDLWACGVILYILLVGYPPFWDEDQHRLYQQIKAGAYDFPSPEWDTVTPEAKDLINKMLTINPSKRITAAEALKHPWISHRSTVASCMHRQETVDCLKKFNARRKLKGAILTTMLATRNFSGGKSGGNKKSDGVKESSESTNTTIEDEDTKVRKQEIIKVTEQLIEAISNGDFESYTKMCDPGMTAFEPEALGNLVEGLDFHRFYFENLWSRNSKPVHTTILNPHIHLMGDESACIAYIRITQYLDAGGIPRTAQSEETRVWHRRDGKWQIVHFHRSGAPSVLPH

[3] = biological target: T1, Mitogen-activated protein kinase 13 (Homo sapiens) (UniProt O15264); test: Inhibition of recombinant human full length His-tagged MAPK13 expressed in baculovirus expression system using serine/threonine-03 peptide as substrate at 10 uM incubated for 60 mins in presence of ATP by Z'-LYTE assay
T1 sequence (whole entry): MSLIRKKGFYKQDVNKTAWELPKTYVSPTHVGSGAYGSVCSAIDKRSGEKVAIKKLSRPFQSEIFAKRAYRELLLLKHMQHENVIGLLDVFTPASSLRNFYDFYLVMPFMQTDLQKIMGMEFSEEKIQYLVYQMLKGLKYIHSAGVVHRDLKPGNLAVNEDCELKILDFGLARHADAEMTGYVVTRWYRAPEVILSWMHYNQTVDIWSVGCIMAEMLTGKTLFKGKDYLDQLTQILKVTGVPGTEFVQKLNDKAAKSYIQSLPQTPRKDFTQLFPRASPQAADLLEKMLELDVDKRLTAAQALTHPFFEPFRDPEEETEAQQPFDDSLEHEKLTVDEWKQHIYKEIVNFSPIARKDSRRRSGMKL

[4] = biological target: Mitogen-activated protein kinase 3 (Homo sapiens) (UniProt P27361); test: Inhibition of recombinant human full length GST-tagged MAPK3 expressed in Escherichia coli expression system using serine/threonine-03 peptide as substrate at 10 uM by Z'-LYTE assay; details: time 60.0 min
Mitogen-activated protein kinase 3 (Homo sapiens), sequence (P27361 whole entry): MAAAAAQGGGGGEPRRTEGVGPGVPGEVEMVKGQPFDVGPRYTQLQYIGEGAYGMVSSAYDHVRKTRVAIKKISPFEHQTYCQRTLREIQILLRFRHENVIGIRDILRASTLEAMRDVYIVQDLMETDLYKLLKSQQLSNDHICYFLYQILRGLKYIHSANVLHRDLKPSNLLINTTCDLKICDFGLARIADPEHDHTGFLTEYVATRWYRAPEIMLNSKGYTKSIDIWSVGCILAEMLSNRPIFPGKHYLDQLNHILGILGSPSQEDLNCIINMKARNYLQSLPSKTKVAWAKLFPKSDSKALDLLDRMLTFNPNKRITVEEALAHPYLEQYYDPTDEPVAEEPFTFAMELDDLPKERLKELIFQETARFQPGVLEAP

[5] = biological target: T2, Tyrosine-protein kinase JAK3 (Homo sapiens) (UniProt P52333); test: Inhibition of recombinant human GST-tagged JAK3 expressed in baculovirus expression system using Tyr-06 peptide as substrate at 10 uM incubated for 60 mins in presence of ATP by Z'-LYTE assay
T2 sequence (whole entry): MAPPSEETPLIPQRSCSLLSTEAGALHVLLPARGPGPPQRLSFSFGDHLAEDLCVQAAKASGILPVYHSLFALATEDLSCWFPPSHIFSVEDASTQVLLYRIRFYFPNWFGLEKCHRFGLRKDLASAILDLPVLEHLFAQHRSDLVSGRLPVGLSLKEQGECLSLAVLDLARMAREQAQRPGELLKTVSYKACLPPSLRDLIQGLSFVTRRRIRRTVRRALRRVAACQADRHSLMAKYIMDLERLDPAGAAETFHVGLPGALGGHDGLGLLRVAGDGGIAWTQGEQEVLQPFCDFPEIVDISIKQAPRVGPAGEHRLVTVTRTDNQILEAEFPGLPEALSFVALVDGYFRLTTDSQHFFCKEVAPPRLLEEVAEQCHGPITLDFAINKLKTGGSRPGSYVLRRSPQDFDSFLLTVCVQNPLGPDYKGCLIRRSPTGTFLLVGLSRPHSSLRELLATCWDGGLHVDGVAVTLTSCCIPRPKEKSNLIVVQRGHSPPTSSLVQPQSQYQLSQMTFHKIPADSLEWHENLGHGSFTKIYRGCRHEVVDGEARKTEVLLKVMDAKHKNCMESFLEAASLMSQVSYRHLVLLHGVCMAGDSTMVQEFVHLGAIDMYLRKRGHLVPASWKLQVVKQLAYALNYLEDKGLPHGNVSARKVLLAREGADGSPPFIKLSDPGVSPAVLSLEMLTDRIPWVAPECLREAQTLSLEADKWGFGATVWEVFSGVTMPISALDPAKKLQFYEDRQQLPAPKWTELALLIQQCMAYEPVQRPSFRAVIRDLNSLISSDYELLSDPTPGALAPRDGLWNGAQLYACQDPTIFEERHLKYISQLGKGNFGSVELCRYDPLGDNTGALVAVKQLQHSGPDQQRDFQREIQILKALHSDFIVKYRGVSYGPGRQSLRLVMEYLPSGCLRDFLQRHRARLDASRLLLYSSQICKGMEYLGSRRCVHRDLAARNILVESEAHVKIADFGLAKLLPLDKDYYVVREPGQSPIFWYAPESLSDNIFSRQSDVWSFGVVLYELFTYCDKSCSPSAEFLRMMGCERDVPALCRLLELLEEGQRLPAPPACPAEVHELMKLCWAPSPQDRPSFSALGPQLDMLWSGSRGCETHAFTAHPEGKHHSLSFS

[6] = biological target: Rho-associated protein kinase 1 (Homo sapiens) (UniProt Q13464); test: Inhibition of recombinant human GST-tagged ROCK1 expressed in baculovirus expression system using serine/threonine-07 peptide as substrate at 10 uM by Z'-LYTE assay; details: time 60.0 min
Rho-associated protein kinase 1 (Homo sapiens), sequence (Q13464 2-1354 limits assumed): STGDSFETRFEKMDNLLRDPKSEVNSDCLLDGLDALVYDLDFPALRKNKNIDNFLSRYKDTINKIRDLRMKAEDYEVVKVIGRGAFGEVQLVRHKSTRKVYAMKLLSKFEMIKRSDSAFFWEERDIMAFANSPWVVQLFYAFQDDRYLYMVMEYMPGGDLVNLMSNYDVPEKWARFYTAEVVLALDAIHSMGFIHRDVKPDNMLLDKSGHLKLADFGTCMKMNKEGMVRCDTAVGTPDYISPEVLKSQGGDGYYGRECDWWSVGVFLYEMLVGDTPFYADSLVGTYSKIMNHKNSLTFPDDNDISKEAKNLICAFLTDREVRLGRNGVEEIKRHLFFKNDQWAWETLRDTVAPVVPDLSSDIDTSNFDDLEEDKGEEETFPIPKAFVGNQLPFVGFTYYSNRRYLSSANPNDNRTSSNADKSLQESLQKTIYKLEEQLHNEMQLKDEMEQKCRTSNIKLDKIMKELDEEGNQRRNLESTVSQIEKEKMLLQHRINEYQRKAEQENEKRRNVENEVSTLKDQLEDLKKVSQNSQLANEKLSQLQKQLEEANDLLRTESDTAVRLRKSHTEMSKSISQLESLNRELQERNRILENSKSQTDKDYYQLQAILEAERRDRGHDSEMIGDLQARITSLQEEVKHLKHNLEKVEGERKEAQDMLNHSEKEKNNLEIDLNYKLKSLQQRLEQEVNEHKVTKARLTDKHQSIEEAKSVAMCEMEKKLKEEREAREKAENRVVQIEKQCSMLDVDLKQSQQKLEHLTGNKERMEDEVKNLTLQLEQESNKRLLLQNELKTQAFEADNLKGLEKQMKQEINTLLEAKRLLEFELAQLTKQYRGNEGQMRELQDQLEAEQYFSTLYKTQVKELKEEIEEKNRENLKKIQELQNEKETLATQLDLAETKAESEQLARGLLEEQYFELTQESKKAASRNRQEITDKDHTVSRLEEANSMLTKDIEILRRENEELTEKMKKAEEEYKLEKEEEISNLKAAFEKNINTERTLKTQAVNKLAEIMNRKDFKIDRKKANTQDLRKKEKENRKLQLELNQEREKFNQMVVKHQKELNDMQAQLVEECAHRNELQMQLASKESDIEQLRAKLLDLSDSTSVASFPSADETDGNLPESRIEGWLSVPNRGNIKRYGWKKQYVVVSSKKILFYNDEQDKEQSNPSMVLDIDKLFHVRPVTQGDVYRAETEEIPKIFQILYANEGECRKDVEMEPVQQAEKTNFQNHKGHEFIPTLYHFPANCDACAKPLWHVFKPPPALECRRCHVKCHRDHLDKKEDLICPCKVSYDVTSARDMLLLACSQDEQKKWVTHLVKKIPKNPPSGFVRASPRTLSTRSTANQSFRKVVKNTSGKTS

[7] = biological target: CDC7/DBF4 (Cell division cycle 7-related protein kinase/Activator of S phase kinase) (Homo sapiens) (UniProt Q9UBU7+O00311); test: Inhibition of recombinant human GST tagged CDC7/Dbf4 expressed in baculovirus expression system at 10 uM by Z'-LYTE assay
CDC7/DBF4 (Cell division cycle 7-related protein kinase/Activator of S phase kinase) (Homo sapiens), sequence (O00311 whole entry, looked up): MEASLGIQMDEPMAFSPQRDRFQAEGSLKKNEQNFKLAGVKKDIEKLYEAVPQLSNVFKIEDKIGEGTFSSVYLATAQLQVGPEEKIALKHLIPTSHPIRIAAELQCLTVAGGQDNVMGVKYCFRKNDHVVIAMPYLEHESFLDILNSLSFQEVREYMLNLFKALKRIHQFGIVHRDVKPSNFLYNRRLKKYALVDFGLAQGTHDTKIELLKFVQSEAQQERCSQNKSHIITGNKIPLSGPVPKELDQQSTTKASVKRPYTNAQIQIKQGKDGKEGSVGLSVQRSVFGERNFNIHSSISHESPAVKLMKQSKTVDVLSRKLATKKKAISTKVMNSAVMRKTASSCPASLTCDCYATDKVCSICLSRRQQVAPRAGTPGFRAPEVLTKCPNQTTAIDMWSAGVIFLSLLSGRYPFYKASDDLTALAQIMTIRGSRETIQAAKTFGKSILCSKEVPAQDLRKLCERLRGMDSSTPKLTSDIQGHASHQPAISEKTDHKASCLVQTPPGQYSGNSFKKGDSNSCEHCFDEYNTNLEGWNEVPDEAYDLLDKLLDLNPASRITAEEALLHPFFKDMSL
CDC7/DBF4 (Cell division cycle 7-related protein kinase/Activator of S phase kinase) (Homo sapiens), sequence (Q9UBU7 whole entry, looked up): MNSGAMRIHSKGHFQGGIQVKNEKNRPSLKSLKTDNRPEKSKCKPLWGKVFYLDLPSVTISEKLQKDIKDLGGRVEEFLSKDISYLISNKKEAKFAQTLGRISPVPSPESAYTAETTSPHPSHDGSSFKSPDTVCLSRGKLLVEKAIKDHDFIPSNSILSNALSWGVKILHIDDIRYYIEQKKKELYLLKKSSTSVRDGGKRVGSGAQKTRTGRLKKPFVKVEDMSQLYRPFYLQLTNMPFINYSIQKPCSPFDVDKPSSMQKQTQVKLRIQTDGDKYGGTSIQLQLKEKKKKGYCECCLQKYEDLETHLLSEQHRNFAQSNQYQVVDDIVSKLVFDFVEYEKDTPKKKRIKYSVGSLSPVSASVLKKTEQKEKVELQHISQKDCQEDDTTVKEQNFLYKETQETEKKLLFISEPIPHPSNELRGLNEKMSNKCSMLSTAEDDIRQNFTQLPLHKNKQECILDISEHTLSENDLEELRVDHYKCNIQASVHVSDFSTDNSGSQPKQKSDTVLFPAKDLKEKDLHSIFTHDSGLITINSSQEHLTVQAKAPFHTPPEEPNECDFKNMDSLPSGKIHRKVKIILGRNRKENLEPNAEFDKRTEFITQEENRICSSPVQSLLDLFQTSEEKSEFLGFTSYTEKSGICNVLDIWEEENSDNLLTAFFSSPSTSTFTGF

[8] = biological target: Dual specificity tyrosine-phosphorylation-regulated kinase 1A (Homo sapiens) (UniProt Q13627); test: Inhibition of recombinant human full length GST-tagged DYRK1A expressed in baculovirus expression system using serine/threonine-18 peptide as substrate at 10 uM incubated for 60 mins in presence of ATP by Z'-LYTE assay
[9] = biological target: Homeodomain-interacting protein kinase 1 (Homo sapiens) (UniProt Q86Z02); test: Inhibition of recombinant human full length GST-tagged HIPK1 expressed in baculovirus expression system using serine/threonine-09 peptide as substrate at 10 uM incubated for 60 mins in presence of ATP by Z'-LYTE assay
[10] = biological target: Serine/threonine-protein kinase MARK1 (Homo sapiens) (UniProt Q9P0L2); test: Inhibition of recombinant human full length GST-tagged MARK1 expressed in baculovirus expression system using serine/threonine-21 peptide as substrate at 10 uM by Z'-LYTE assay; details: time 60.0 min
Serine/threonine-protein kinase MARK1 (Homo sapiens), sequence (Q9P0L2 whole entry, looked up): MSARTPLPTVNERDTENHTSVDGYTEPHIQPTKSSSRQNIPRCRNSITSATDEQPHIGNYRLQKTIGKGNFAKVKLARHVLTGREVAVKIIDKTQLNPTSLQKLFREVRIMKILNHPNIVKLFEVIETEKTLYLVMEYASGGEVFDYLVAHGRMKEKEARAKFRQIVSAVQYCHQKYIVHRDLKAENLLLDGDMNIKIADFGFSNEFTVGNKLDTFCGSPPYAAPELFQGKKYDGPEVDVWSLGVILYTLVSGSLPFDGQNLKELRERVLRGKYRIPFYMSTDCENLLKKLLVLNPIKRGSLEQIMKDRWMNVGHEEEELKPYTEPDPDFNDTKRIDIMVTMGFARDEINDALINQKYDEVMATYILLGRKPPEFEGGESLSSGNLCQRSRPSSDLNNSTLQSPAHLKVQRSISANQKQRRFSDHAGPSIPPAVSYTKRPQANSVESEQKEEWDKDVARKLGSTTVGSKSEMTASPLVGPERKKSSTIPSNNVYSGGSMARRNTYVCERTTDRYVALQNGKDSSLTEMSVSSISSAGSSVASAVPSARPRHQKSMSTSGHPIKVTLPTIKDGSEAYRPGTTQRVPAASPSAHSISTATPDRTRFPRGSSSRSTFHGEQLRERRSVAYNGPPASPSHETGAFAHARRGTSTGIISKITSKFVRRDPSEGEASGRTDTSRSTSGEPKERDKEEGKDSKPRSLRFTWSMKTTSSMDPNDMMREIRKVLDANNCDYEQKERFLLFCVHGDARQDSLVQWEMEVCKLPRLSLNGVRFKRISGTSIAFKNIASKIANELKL

[11] = biological target: Platelet-derived growth factor receptor alpha (Homo sapiens) (UniProt P16234); test: Inhibition of recombinant human GST-tagged PDGFRA expressed in baculovirus expression system using Tyr-04 peptide as substrate at 10 uM by Z'-LYTE assay; details: time 60.0 min
[12] = biological target: Casein kinase I isoform epsilon (Homo sapiens) (UniProt P49674); test: Inhibition of human CSNK1E expressed in baculovirus expression system using serine/threonine-11 peptide as substrate at 10 uM incubated for 60 mins in presence of ATP by Z'-LYTE assay
[13] = biological target: Maternal embryonic leucine zipper kinase (Homo sapiens) (UniProt Q14680); test: Inhibition of recombinant human full length GST-tagged MELK expressed in baculovirus expression system using serine/threonine-21 peptide as substrate at 10 uM by Z'-LYTE assay; details: time 60.0 min

With c1ccc(CSc2ncnc3[nH]cnc23)cc1 the inhibition [1] was “inactive”, the inhibition [2] was “inactive” and the inhibition [3] was “inactive”. The inhibition [4] was “inactive”, the inhibition [5] was “inactive” and the inhibition [6] was “inactive”. The inhibition [7] was “Active”, the inhibition [8] was “inactive” and the inhibition [9] was “inactive”. The inhibition [10] was “inactive”, the inhibition [11] was “inactive” and the inhibition [12] was “inactive”. For the same molecule, the inhibition [13] was “inactive”.
For Brc1ccccc1CSc1ncnc2[nH]cnc12, the inhibition [1] was “inactive”, the inhibition [2] was “inactive” and the inhibition [3] was “inactive”. The inhibition [4] was “inactive”, the inhibition [5] was “inactive” and the inhibition [6] was “inactive”. The inhibition [7] was “Active”, the inhibition [8] was “inactive” and the inhibition [9] was “inactive”. For the same molecule, the inhibition [10] was “inactive”, the inhibition [11] was “inactive” and the inhibition [12] was “inactive”. The inhibition [13] was “inactive”.
Clc1cccc(CSc2ncnc3[nH]cnc23)c1 was tested, and the inhibition [1] was “inactive”, the inhibition [2] was “inactive” and the inhibition [3] was “inactive”. For the same molecule, the inhibition [4] was “inactive”, the inhibition [5] was “inactive” and the inhibition [6] was “inactive”. For the same molecule, the inhibition [7] was “Active”, the inhibition [8] was “inactive” and the inhibition [9] was “inactive”. The inhibition [10] was “inactive”, the inhibition [11] was “inactive” and the inhibition [12] was “inactive”. For the same molecule, the inhibition [13] was “inactive”.
